# What was measured:
# [1] = system: A10 embryonic vascular smooth muscle cells; assay: xCELLigence cellular impedance (cell index), A10 vascular smooth muscle cells; type: cell-based; settings: 62.5, 125 and 250 μM, FIG. 3
# Method: The xCELLigence SP system (Roche) was used to measure changes in cellular impedance (cell index) following the treatment of A10 embryonic vascular smooth muscle cells (ATCC, CRL-1476) with VB0004. This in vitro assay was correlated with blood pressure data obtained in the animal model described below in Example 3, so that it can be used for faster screening of larger number of compounds. […]
# Briefly, 50 μl of cell culture medium (DMEM low glucose supplemented with 10% fetal bovine serum at 37° C.) was added to each well of an E-Plate 96 (Roche), and the background impedance in each well was measured. […] Cell index was monitored for each well of the E-Plate 96 in RTCA SP Station within the cell culture incubator. After overnight incubation for 16-20 hours at 5% CO2 and 95% humidity, 100 μl of VB0004 solution (VB0004 was prepared in DMSO and diluted with cell culture medium to a final DMSO concentration of 0.25%) was added to the appropriate wells of the E-Plate 96 and cell index values were measured immediately following compound treatment every 20 seconds for 3 hours. […]
# [2] = system: SHR on 2.2% salt diet; assay: Oral study: fibrosis quantitation in kidney (Masson's trichrome) of SHR on 2.2% salt diet; type: in vivo, rat
# Description: (§1) Fourteen week old SHR (on a 2.2% salt diet; Glen Forrest Stockfeeders) were randomly assigned to zero time control, VB0004 treatment (10, 100, 500, 1,000 and 2,500 pmol/kg/min) in the drinking solution or control drinking solution (5% ethanol in deionised distilled water (n=5 each group). The rats assigned to zero time control group were anaesthetised and had their heart and kidneys harvested while rats assigned to control and VB0004 treatment were weighed twice weekly and had their drinking solution intake monitored to allow adjustment of the VB0004 concentration in the drinking solution to maintain a constant dose over the 4, 6 or 8 weeks study periods. Blood pressure was measured twice weekly by tail cuff plethysmography (PowerLab, ADInstruments, Castle Hill, NSW, Australia). After 4, 6 or 8 weeks rats were anaesthetised, and their heart and kidneys harvested for quantitation of fibrosis. To quantitate fibrosis, tissue slices ≦3 mm thick were fixed in 10% buffered formalin for 24 hours, processed and embedded in paraffin. […] A minimum of 20 random fields at magnification ×20 from transverse sections (5 at each of 2 levels) were digitized and the degree of fibrosis determined as a percent of field area of each digitized image using Image-Pro Plus V.5 (Media Cybernetics, Bethesda, Md., USA) then averaged to determine the level of fibrosis for tissue for each rat.
# [3] = system: SHR on 2.2% salt diet; assay: Intravenous infusion study: systolic blood pressure by tail cuff plethysmography in SHR on 2.2% salt diet; type: in vivo, rat; settings: intravenous 10 and 20 pmol/kg/min, 4 weeks, FIG. 6
# Method: Fourteen week old SHR (on a 2.2% salt diet; Glen Forrest Stockfeeders) were randomly assigned to zero time control, VB0004 infusion (10 and 20 pmol/kg/min) or vehicle (20% DMSO in normal saline, Baxter Healthcare, Sydney NSW Australia) infusion (n=5 each group). […] Blood pressure was measured twice weekly by tail cuff plethysmography (PowerLab, ADInstruments, Castle Hill, NSW, Australia). After 4 weeks rats were again anaesthetised, their heart and kidneys harvested for quantitation of fibrosis.
# [4] = system: SHR on 2.2% salt diet; assay: Oral study: fibrosis quantitation in heart (Masson's trichrome) of SHR on 2.2% salt diet; type: in vivo, rat
# Description: as §1
# [5] = system: bovine aortic endothelial cells; assay: xCELLigence cellular impedance (cell index), bovine aortic endothelial cells; type: cell-based; settings: 62.5, 125 and 250 μM, FIG. 5
# Method: Briefly, 50 μl of cell culture medium (DMEM low glucose supplemented with 10% fetal bovine serum at 37° C.) was added to each well of an E-Plate 96 (Roche), and the background impedance in each well was measured. 50 μl of A-10 cell suspension (10,000 cells/well) was then added to the appropriate wells of the E-Plate 96. Cell index was monitored for each well of the E-Plate 96 in RTCA SP Station within the cell culture incubator. After overnight incubation for 16-20 hours at 5% CO2 and 95% humidity, 100 μl of VB0004 solution (VB0004 was prepared in DMSO and diluted with cell culture medium to a final DMSO concentration of 0.25%) was added to the appropriate wells of the E-Plate 96 and cell index values were measured immediately following compound treatment every 20 seconds for 3 hours. Cell index value is baseline-corrected by subtracting the cell index of vehicle-treated cells and normalized by dividing by the cell index at the time point immediately before compound addition. Baseline normalized cell index as a function of time is plotted using Roche RTCA software.
# The xCELLigence SP system (Roche) was also used to measure changes in cellular impedance (cell index) following the treatment of bovine aortic endothelial cells (European Collection of Cell Cultures) with test compound. […]
# [6] = system: SHR on 2.2% salt diet; assay: Oral study: systolic blood pressure by tail cuff plethysmography in SHR on 2.2% salt diet; type: in vivo, rat
# Description: Fourteen week old SHR (on a 2.2% salt diet; Glen Forrest Stockfeeders) were randomly assigned to zero time control, VB0004 treatment (10, 100, 500, 1,000 and 2,500 pmol/kg/min) in the drinking solution or control drinking solution (5% ethanol in deionised distilled water (n=5 each group). The rats assigned to zero time control group were anaesthetised and had their heart and kidneys harvested while rats assigned to control and VB0004 treatment were weighed twice weekly and had their drinking solution intake monitored to allow adjustment of the VB0004 concentration in the drinking solution to maintain a constant dose over the 4, 6 or 8 weeks study periods. Blood pressure was measured twice weekly by tail cuff plethysmography (PowerLab, ADInstruments, Castle Hill, NSW, Australia). After 4, 6 or 8 weeks rats were anaesthetised, and their heart and kidneys harvested for quantitation of fibrosis.
smiles,measurement,setting,value
"NC(=O)CCc1cc(-c2ccccc2)ccc1-c1cccc(O)c1 [VB0004, 2′-[3-Hydroxy-(1,1′:4′,1″-terphenyl)]propanamide]",impedance response (cell index),[1],negative impedance response
same,fibrosis in the kidney,"[2]; 18 week old SHR, 10 to 500 pmol/kg/min orally, 4 weeks, vs 14 and 18 week controls, FIG. 10",decreased compared with fibrosis in 14 and 18 week controls
same,"fibrous tissue in kidney sections (micrographs, Masson's trichrome)","[2]; SHR, 500 pmol/kg/min for four weeks, FIG. 12",virtually no fibrous tissue is present
same,decrease in SBP compared with vehicle control,[3],20 mmHg
same,fibrosis in the heart,"[4]; 18 week old SHR, 10 to 500 pmol/kg/min orally, 4 weeks, vs 14 and 18 week controls, FIG. 9",decreased compared with fibrosis in 14 and 18 week controls
same,"fibrous tissue in heart sections (micrographs, Masson's trichrome)","[4]; SHR, 500 pmol/kg/min for four weeks, FIG. 11",virtually no fibrous tissue is present
same,impedance response (cell index),[5],negative impedance response
same,melting point,,167.2 to 168.9 °C
same,mean systolic blood pressure over time,"[6]; 2,500 pmol/kg/min orally, up to 8 weeks, FIG. 8",continued to decrease with time
same,mean systolic blood pressure compared to controls,"[6]; 10, 100 and 500 pmol/kg/min orally, 4 weeks, FIG. 4",decreased blood pressure compared to controls
same,"mean systolic blood pressure compared with controls, dose dependence","[6]; 10 to 2,500 pmol/kg/min orally, 4 weeks, FIG. 7",decreased blood pressure with increased dose compared with controls

# From US9458093B2, “Compositions for the treatment of hypertension and/or fibrosis” (Vectus Biosystems Limited, priority 2013, dated 2016)
